From paper PMC3703859 (Neuropharmacology, 2010)

How the values were obtained:
human DAT V152I [1] = biological target: T1, human DAT V152I (Homo sapiens, UniProt Q01959, V152I); assay: [^3H]CFT binding on intact transfected COS7 cells; conditions: V152I vs WT
human DAT V152A [2] = biological target: T2, human DAT V152A (Homo sapiens, UniProt Q01959, V152A); assay: [^3H]CFT binding on intact transfected COS7 cells; conditions: V152A vs WT
human DAT V152A [3] = biological target: T2, human DAT V152A; assay: [^3H]dopamine uptake in transfected COS7 cells; format: cell-based; conditions: for decrease in potency in inhibition of [^3H]dopamine uptake versus wild type: V152A vs WT
human DAT V152I [4] = biological target: T1, human DAT V152I; assay: [^3H]dopamine uptake in transfected COS7 cells; format: cell-based; conditions: for decrease in potency in inhibition of [^3H]dopamine uptake versus wild type: V152I vs WT
human DAT N157A = human DAT N157A (Homo sapiens, UniProt Q01959, N157A); assay: [^3H]dopamine uptake in transfected COS7 cells; format: cell-based
human DAT N157C = human DAT N157C (Homo sapiens, UniProt Q01959, N157C); assay: [^3H]dopamine uptake in transfected COS7 cells; format: cell-based
wild type human DAT = wild type human DAT (Homo sapiens, UniProt Q01959); assay: [^3H]dopamine uptake in transfected COS7 cells; format: cell-based; conditions: WT DAT
human DAT S422A = human DAT S422A (Homo sapiens, UniProt Q01959, S422A); assay: [^3H]dopamine uptake in transfected COS7 cells; format: cell-based
human DAT A479V/A480V = human DAT A479V/A480V (Homo sapiens, UniProt Q01959, A479V/A480V); assay: [^3H]dopamine uptake in transfected COS7 cells; format: cell-based
[5] = substrate: NCCc1ccc(O)c(O)c1; assay: cells, lysate or membranes; conditions: COS7 cells, 5 min uptake at room temperature, pH 7.4

## CN1[C@@H]2CC[C@H]1C[C@@H](OC(c1ccccc1)c1ccccc1)C2 [BZT, benztropine]
Human DAT V152I [1]
  reduction in apparent affinity in [^3H]CFT competition binding versus wild type: ~ 15 fold
Human DAT V152A [2]
  reduction in apparent affinity in [^3H]CFT competition binding versus wild type: ~ 15 fold
Human DAT V152A [3]
  decrease in potency in inhibition of [^3H]dopamine uptake versus wild type: ~ 3 fold
Human DAT V152I [4]
  decrease in potency in inhibition of [^3H]dopamine uptake versus wild type: no change

## CCCCN1[C@@H]2CC[C@H]1CC(OC(c1ccc(F)cc1)c1ccc(F)cc1)C2 (some centres unmarked) [JHW007]
Human DAT V152I [1]
  reduction in apparent affinity in [^3H]CFT competition binding versus wild type: 10–20 fold
Human DAT V152A [2]
  reduction in apparent affinity in [^3H]CFT competition binding versus wild type: 10–20 fold
Human DAT V152A [3]
  decrease in potency in inhibition of [^3H]dopamine uptake versus wild type: ~ 2 fold
Human DAT V152I [4]
  decrease in potency in inhibition of [^3H]dopamine uptake versus wild type: ~ 6 fold

## NCCc1ccc(O)c(O)c1 [[^3H]Dopamine, 3,4-[Ring-2,5,6-^3H]-dihydroxyphenylethylamine]
Human DAT V152A [3]; V152A, COS7 cells
  Vmax ± S.E. of [^3H]dopamine uptake: 614 ± 167 fmol/min/10^5 cells
Human DAT N157A
  Vmax ± S.E. of [^3H]dopamine uptake: 598 ± 179 fmol/min/10^5 cells
Human DAT N157C
  Vmax ± S.E. of [^3H]dopamine uptake: 1768 ± 159 fmol/min/10^5 cells
Human DAT V152I [4]; V152I, COS7 cells
  Vmax ± S.E. of [^3H]dopamine uptake: 242 ± 37 fmol/min/10^5 cells
Wild type human DAT
  Vmax ± S.E. of [^3H]dopamine uptake: 5275 ± 555 fmol/min/10^5 cells
Human DAT S422A; S422A vs WT
  increase in Km value for [^3H]dopamine uptake versus wild type: ~ 4 fold
Human DAT S422A; S422A, COS7 cells
  Vmax ± S.E. of [^3H]dopamine uptake: 320 ± 40 fmol/min/10^5 cells
Human DAT A479V/A480V
  Vmax ± S.E. of [^3H]dopamine uptake: 2231 ± 157 fmol/min/10^5 cells

B1: wild type human DAT (Homo sapiens) (protein)
chain: MSKSKCSVGLMSSVVAPAKEPNAVGPKEVELILVKEQNGVQLTSSTLTNPRQSPVEAQDRETWGKKIDFLLSVIGFAVDLANVWRFPYLCYKNGGGAFLVPYLLFMVIAGMPLFYMELALGQFNREGAAGVWKICPILKGVGFTVILISLYVGFFYNVIIAWALHYLFSSFTTELPWIHCNNSWNSPNCSDAHPGDSSGDSSGLNDTFGTTPAAEYFERGVLHLHQSHGIDDLGPPRWQLTACLVLVIVLLYFSLWKGVKTSGKVVWITATMPYVVLTALLLRGVTLPGAIDGIRAYLSVDFYRLCEASVWIDAATQVCFSLGVGFGVLIAFSSYNKFTNNCYRDAIVTTSINSLTSFSSGFVVFSFLGYMAQKHSVPIGDVAKDGPGLIFIIYPEAIATLPLSSAWAVVFFIMLLTLGIDSAMGGMESVITGLIDEFQLLHRHRELFTLFIVLATFLLSLFCVTNGGIYVFTLLDHFAAGTSILFGVLIEAIGVAWFYGVGQFSDDIQQMTGQRPSLYWRLCWKLVSPCFLLFVVVVSIVTFRPPHYGAYIFPDWANALGWVIATSSMAMVPIYAAYKFCSLPGSFREKLAYAIAPEKDRELVDRGEVRQFTLRHWLKV
[5]; other: WT DAT
  Km: 986 [861–1130] nM

B2: human DAT N157A (Homo sapiens; N157A) (protein)
chain: MSKSKCSVGLMSSVVAPAKEPNAVGPKEVELILVKEQNGVQLTSSTLTNPRQSPVEAQDRETWGKKIDFLLSVIGFAVDLANVWRFPYLCYKNGGGAFLVPYLLFMVIAGMPLFYMELALGQFNREGAAGVWKICPILKGVGFTVILISLYVGFFYAVIIAWALHYLFSSFTTELPWIHCNNSWNSPNCSDAHPGDSSGDSSGLNDTFGTTPAAEYFERGVLHLHQSHGIDDLGPPRWQLTACLVLVIVLLYFSLWKGVKTSGKVVWITATMPYVVLTALLLRGVTLPGAIDGIRAYLSVDFYRLCEASVWIDAATQVCFSLGVGFGVLIAFSSYNKFTNNCYRDAIVTTSINSLTSFSSGFVVFSFLGYMAQKHSVPIGDVAKDGPGLIFIIYPEAIATLPLSSAWAVVFFIMLLTLGIDSAMGGMESVITGLIDEFQLLHRHRELFTLFIVLATFLLSLFCVTNGGIYVFTLLDHFAAGTSILFGVLIEAIGVAWFYGVGQFSDDIQQMTGQRPSLYWRLCWKLVSPCFLLFVVVVSIVTFRPPHYGAYIFPDWANALGWVIATSSMAMVPIYAAYKFCSLPGSFREKLAYAIAPEKDRELVDRGEVRQFTLRHWLKV
[5]; other: N157A
  Km: 3240 [2720–3870] nM

B3: human DAT N157C (Homo sapiens; N157C) (protein)
chain: MSKSKCSVGLMSSVVAPAKEPNAVGPKEVELILVKEQNGVQLTSSTLTNPRQSPVEAQDRETWGKKIDFLLSVIGFAVDLANVWRFPYLCYKNGGGAFLVPYLLFMVIAGMPLFYMELALGQFNREGAAGVWKICPILKGVGFTVILISLYVGFFYCVIIAWALHYLFSSFTTELPWIHCNNSWNSPNCSDAHPGDSSGDSSGLNDTFGTTPAAEYFERGVLHLHQSHGIDDLGPPRWQLTACLVLVIVLLYFSLWKGVKTSGKVVWITATMPYVVLTALLLRGVTLPGAIDGIRAYLSVDFYRLCEASVWIDAATQVCFSLGVGFGVLIAFSSYNKFTNNCYRDAIVTTSINSLTSFSSGFVVFSFLGYMAQKHSVPIGDVAKDGPGLIFIIYPEAIATLPLSSAWAVVFFIMLLTLGIDSAMGGMESVITGLIDEFQLLHRHRELFTLFIVLATFLLSLFCVTNGGIYVFTLLDHFAAGTSILFGVLIEAIGVAWFYGVGQFSDDIQQMTGQRPSLYWRLCWKLVSPCFLLFVVVVSIVTFRPPHYGAYIFPDWANALGWVIATSSMAMVPIYAAYKFCSLPGSFREKLAYAIAPEKDRELVDRGEVRQFTLRHWLKV
[5]; other: N157C
  Km: 2710 [2170–3380] nM

B4: human DAT A479V/A480V (Homo sapiens; A479V/A480V) (protein)
chain: MSKSKCSVGLMSSVVAPAKEPNAVGPKEVELILVKEQNGVQLTSSTLTNPRQSPVEAQDRETWGKKIDFLLSVIGFAVDLANVWRFPYLCYKNGGGAFLVPYLLFMVIAGMPLFYMELALGQFNREGAAGVWKICPILKGVGFTVILISLYVGFFYNVIIAWALHYLFSSFTTELPWIHCNNSWNSPNCSDAHPGDSSGDSSGLNDTFGTTPAAEYFERGVLHLHQSHGIDDLGPPRWQLTACLVLVIVLLYFSLWKGVKTSGKVVWITATMPYVVLTALLLRGVTLPGAIDGIRAYLSVDFYRLCEASVWIDAATQVCFSLGVGFGVLIAFSSYNKFTNNCYRDAIVTTSINSLTSFSSGFVVFSFLGYMAQKHSVPIGDVAKDGPGLIFIIYPEAIATLPLSSAWAVVFFIMLLTLGIDSAMGGMESVITGLIDEFQLLHRHRELFTLFIVLATFLLSLFCVTNGGIYVFTLLDHFVVGTSILFGVLIEAIGVAWFYGVGQFSDDIQQMTGQRPSLYWRLCWKLVSPCFLLFVVVVSIVTFRPPHYGAYIFPDWANALGWVIATSSMAMVPIYAAYKFCSLPGSFREKLAYAIAPEKDRELVDRGEVRQFTLRHWLKV
[5]; other: A479V/A480V
  Km: 1620 [1350–1940] nM

B5: human DAT V152I (Homo sapiens; V152I) (protein)
chain: MSKSKCSVGLMSSVVAPAKEPNAVGPKEVELILVKEQNGVQLTSSTLTNPRQSPVEAQDRETWGKKIDFLLSVIGFAVDLANVWRFPYLCYKNGGGAFLVPYLLFMVIAGMPLFYMELALGQFNREGAAGVWKICPILKGVGFTVILISLYIGFFYNVIIAWALHYLFSSFTTELPWIHCNNSWNSPNCSDAHPGDSSGDSSGLNDTFGTTPAAEYFERGVLHLHQSHGIDDLGPPRWQLTACLVLVIVLLYFSLWKGVKTSGKVVWITATMPYVVLTALLLRGVTLPGAIDGIRAYLSVDFYRLCEASVWIDAATQVCFSLGVGFGVLIAFSSYNKFTNNCYRDAIVTTSINSLTSFSSGFVVFSFLGYMAQKHSVPIGDVAKDGPGLIFIIYPEAIATLPLSSAWAVVFFIMLLTLGIDSAMGGMESVITGLIDEFQLLHRHRELFTLFIVLATFLLSLFCVTNGGIYVFTLLDHFAAGTSILFGVLIEAIGVAWFYGVGQFSDDIQQMTGQRPSLYWRLCWKLVSPCFLLFVVVVSIVTFRPPHYGAYIFPDWANALGWVIATSSMAMVPIYAAYKFCSLPGSFREKLAYAIAPEKDRELVDRGEVRQFTLRHWLKV
[5]; other: V152I
  Km: 4370 [3180–6010] nM

B6: human DAT V152A (Homo sapiens; V152A) (protein)
chain: MSKSKCSVGLMSSVVAPAKEPNAVGPKEVELILVKEQNGVQLTSSTLTNPRQSPVEAQDRETWGKKIDFLLSVIGFAVDLANVWRFPYLCYKNGGGAFLVPYLLFMVIAGMPLFYMELALGQFNREGAAGVWKICPILKGVGFTVILISLYAGFFYNVIIAWALHYLFSSFTTELPWIHCNNSWNSPNCSDAHPGDSSGDSSGLNDTFGTTPAAEYFERGVLHLHQSHGIDDLGPPRWQLTACLVLVIVLLYFSLWKGVKTSGKVVWITATMPYVVLTALLLRGVTLPGAIDGIRAYLSVDFYRLCEASVWIDAATQVCFSLGVGFGVLIAFSSYNKFTNNCYRDAIVTTSINSLTSFSSGFVVFSFLGYMAQKHSVPIGDVAKDGPGLIFIIYPEAIATLPLSSAWAVVFFIMLLTLGIDSAMGGMESVITGLIDEFQLLHRHRELFTLFIVLATFLLSLFCVTNGGIYVFTLLDHFAAGTSILFGVLIEAIGVAWFYGVGQFSDDIQQMTGQRPSLYWRLCWKLVSPCFLLFVVVVSIVTFRPPHYGAYIFPDWANALGWVIATSSMAMVPIYAAYKFCSLPGSFREKLAYAIAPEKDRELVDRGEVRQFTLRHWLKV
[5]; other: V152A
  Km: 3090 [2310–4130] nM

B7: human DAT S422A (Homo sapiens; S422A) (protein)
chain: MSKSKCSVGLMSSVVAPAKEPNAVGPKEVELILVKEQNGVQLTSSTLTNPRQSPVEAQDRETWGKKIDFLLSVIGFAVDLANVWRFPYLCYKNGGGAFLVPYLLFMVIAGMPLFYMELALGQFNREGAAGVWKICPILKGVGFTVILISLYVGFFYNVIIAWALHYLFSSFTTELPWIHCNNSWNSPNCSDAHPGDSSGDSSGLNDTFGTTPAAEYFERGVLHLHQSHGIDDLGPPRWQLTACLVLVIVLLYFSLWKGVKTSGKVVWITATMPYVVLTALLLRGVTLPGAIDGIRAYLSVDFYRLCEASVWIDAATQVCFSLGVGFGVLIAFSSYNKFTNNCYRDAIVTTSINSLTSFSSGFVVFSFLGYMAQKHSVPIGDVAKDGPGLIFIIYPEAIATLPLSSAWAVVFFIMLLTLGIDAAMGGMESVITGLIDEFQLLHRHRELFTLFIVLATFLLSLFCVTNGGIYVFTLLDHFAAGTSILFGVLIEAIGVAWFYGVGQFSDDIQQMTGQRPSLYWRLCWKLVSPCFLLFVVVVSIVTFRPPHYGAYIFPDWANALGWVIATSSMAMVPIYAAYKFCSLPGSFREKLAYAIAPEKDRELVDRGEVRQFTLRHWLKV
[5]; other: S422A
  Km: 3950 [3730–4190] nM
